Experiments:
[1] = biological target: T1, full-length beta-Catenin (Uniprot ID P35222) (Homo sapiens, UniProt P35222); assay: Fluorescence polarization IC50 (beta-catenin / 5FAM-TCF4 10-53 competition); format: binding; conditions: fluorescence polarization; read-out: beta-Catenin FP IC50
T1 construct: 10 nM full-length beta-Catenin (Uniprot ID P35222)
T1 sequence (P35222 1-781): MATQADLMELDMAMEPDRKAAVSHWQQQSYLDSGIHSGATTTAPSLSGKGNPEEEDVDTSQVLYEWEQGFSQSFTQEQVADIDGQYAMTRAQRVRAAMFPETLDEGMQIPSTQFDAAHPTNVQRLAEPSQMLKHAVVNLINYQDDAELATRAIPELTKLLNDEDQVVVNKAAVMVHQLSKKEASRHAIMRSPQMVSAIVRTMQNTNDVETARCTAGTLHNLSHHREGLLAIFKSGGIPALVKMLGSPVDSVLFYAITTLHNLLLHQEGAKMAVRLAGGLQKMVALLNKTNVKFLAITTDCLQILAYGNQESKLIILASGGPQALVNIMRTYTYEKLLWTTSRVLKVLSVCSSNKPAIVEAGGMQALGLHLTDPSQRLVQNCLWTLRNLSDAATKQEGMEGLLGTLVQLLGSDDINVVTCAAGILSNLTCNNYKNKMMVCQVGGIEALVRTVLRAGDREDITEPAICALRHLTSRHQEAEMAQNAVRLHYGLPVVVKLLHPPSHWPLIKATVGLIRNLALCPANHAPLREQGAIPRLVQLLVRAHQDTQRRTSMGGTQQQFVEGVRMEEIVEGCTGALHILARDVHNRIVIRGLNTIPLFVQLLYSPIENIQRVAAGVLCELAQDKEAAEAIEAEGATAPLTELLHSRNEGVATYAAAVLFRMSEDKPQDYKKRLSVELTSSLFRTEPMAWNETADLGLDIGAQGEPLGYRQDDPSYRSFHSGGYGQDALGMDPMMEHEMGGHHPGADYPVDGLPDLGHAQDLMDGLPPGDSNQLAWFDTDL

[2] = biological target: T2, beta-catenin/TCF4 engagement (Homo sapiens, UniProt P35222); assay: Nano-BRET target engagement assay (B-cat-Halo & TCF4-Luc in HEK293 cells); format: cell-based; conditions: read-out: NanoBRET Abs IC50
T2 construct: expressed in transfected cells; host or cells: HEK293
T2 sequence (P35222 1-781): T1 sequence (P35222 1-781)

IC50 [1] [µM]	IC50 [2] [µM]	SMILES
0.026	> 20	CC(=O)N1CCC[C@]12CC=CCCCC1(CCCC=CCCCOC(=O)N3CC[C@@](C(=O)N[C@@H](Cc4ccsc4)C(=O)N[C@@H](Cc4csc5ccccc45)C(=O)N[C@@H](CCC(N)=O)C(N)=O)(C3)NC(=O)[C@H](Cn3cc(CN4CCOCC4)nn3)NC(=O)[C@H](Cc3ccccc3)NC(=O)[C@H](C)NC(=O)[C@H](C)NC(=O)[C@H](CN(CC(=O)O)CC(F)(F)F)NC(=O)[C@H](CC(=O)O)NC1=O)NC(=O)[C@H](CC(C)(C)C)NC(=O)[C@H](CC(=O)O)NC2=O (stereo partly drawn) [I-1866, Ac-PL3-Asp-Npg-B5-Asp-TfeGA-Ala-Ala-Phe-[MorphCH2]TriAzDap-PyrS2-3Thi-BztA-Gln-NH2]
0.007	16.4	CC(=O)N1CCC[C@]12CC=CCCCC1(CCCC=CCCCOC(=O)N3CC[C@@](C(=O)N[C@@H](Cc4ccsc4)C(=O)N[C@@H](Cc4csc5ccccc45)C(=O)N[C@@H](CCC(N)=O)C(N)=O)(C3)NC(=O)[C@H](Cn3cc(CN4CCOCC4)nn3)NC(=O)[C@H](Cc3ccccc3)NC(=O)[C@H](C)NC(=O)[C@H](C)NC(=O)[C@H](CN(CC(=O)O)CC(F)(F)F)NC(=O)[C@H](CC(=O)O)NC1=O)NC(=O)[C@H](CC(C)(C)C)NC(=O)[C@H](CC(=O)O)NC2=O (stereo partly drawn) [I-1867, Ac-PL3-Asp-Npg-B5-Asp-TfeGA-Ala-Ala-Phe-[MorphCH2]TriAzDap-PyrS2-3Thi-BztA-Gln-NH2]
0.031	> 20	CC(=O)N1CCC[C@]12CC=CCCCC1(CCCC=CCCCOC(=O)N3CC[C@@](C(=O)N[C@@H](Cc4ccsc4)C(=O)N[C@@H](Cc4csc5ccccc45)C(=O)N[C@@H](CCC(N)=O)C(N)=O)(C3)NC(=O)[C@H](CC(N)=O)NC(=O)[C@H](Cc3ccccc3)NC(=O)[C@H](C)NC(=O)[C@H](C)NC(=O)[C@H](CCCNC(=N)N)NC(=O)[C@H](CC(=O)O)NC1=O)NC(=O)[C@H](CC(C)(C)C)NC(=O)[C@H](CC(=O)O)NC2=O (stereo partly drawn) [I-1890, Ac-PL3-Asp-Npg-B5-Asp-Arg-Ala-Ala-Phe-Asn-PyrS2-3Thi-BztA-Gln-NH2]
0.04	> 20	CC(=O)N1CCC[C@]12CC=CCCCC1(CCCC=CCCCOC(=O)N3CC[C@@](C(=O)N[C@@H](Cc4ccsc4)C(=O)N[C@@H](Cc4csc5ccccc45)C(=O)N[C@@H](CCC(N)=O)C(N)=O)(C3)NC(=O)[C@H](CC(N)=O)NC(=O)[C@H](Cc3ccccc3)NC(=O)[C@H](C)NC(=O)[C@H](C)NC(=O)[C@H](CCCNC(=N)N)NC(=O)[C@H](CC(=O)O)NC1=O)NC(=O)[C@H](CC(C)(C)C)NC(=O)[C@H](CC(=O)O)NC2=O (stereo partly drawn) [I-1891, Ac-PL3-Asp-Npg-B5-Asp-Arg-Ala-Ala-Phe-Asn-PyrS2-3Thi-BztA-Gln-NH2]
0.022	10.9	CC(=O)N1CCC[C@]12CC=CCCCC1(CCCC=CCCCOC(=O)N3CC[C@@](C(=O)N[C@@H](CC4CCC4)C(=O)N[C@@H](Cc4csc5ccccc45)C(=O)N[C@@H](CO)C(N)=O)(C3)NC(=O)[C@H](CC(C)C)NC(=O)[C@H](Cc3ccccc3)NC(=O)[C@H](C)NC(=O)[C@H](C)NC(=O)[C@H](Cc3cccc(C(=O)O)c3)NC(=O)[C@H](CC(=O)O)NC1=O)NC(=O)[C@H](CC(C)(C)C)NC(=O)[C@H](CC(=O)O)NC2=O (stereo partly drawn) [I-1898, Ac-PL3-Asp-Npg-B5-Asp-3COOHF-Ala-Ala-Phe-Leu-PyrS2-Cba-BztA-Ser-NH2]
0.028	5.1	CC(=O)N1CCC[C@]12CC=CCCCC1(CCCC=CCCCOC(=O)N3CC[C@@](C(=O)N[C@@H](Cc4ccccc4Cl)C(=O)N[C@@H](Cc4csc5ccccc45)C(=O)N[C@@H](CO)C(N)=O)(C3)NC(=O)[C@H](CC(C)C)NC(=O)[C@H](Cc3ccccc3)NC(=O)[C@H](C)NC(=O)C(C)(C)NC(=O)[C@H](Cc3cccc(C(=O)O)c3)NC(=O)[C@H](CC(=O)O)NC1=O)NC(=O)[C@H](CC(C)(C)C)NC(=O)[C@H](CC(=O)O)NC2=O (stereo partly drawn) [I-1899, Ac-PL3-Asp-Npg-B5-Asp-3COOHF-Aib-Ala-Phe-Leu-PyrS2-2C1F-BztA-Ser-NH2]
0.136	> 20	CC(=O)N1CCC[C@]12CC=CCCCC1(CCCC=CCCCOC(=O)N3CC[C@@](C(=O)N[C@@H](Cc4ccccc4Cl)C(=O)N[C@@H](Cc4csc5ccccc45)C(=O)N[C@@H](CO)C(N)=O)(C3)NC(=O)[C@H](CC(C)C)NC(=O)[C@H](Cc3ccccc3)NC(=O)[C@H](C)NC(=O)C(C)(C)NC(=O)[C@H](Cc3cccc(C(=O)O)c3)NC(=O)[C@H](CC(=O)O)NC1=O)NC(=O)[C@H](CC(C)(C)C)NC(=O)[C@H](CC(=O)O)NC2=O (stereo partly drawn) [I-1900, Ac-PL3-Asp-Npg-B5-Asp-3COOHF-Aib-Ala-Phe-Leu-PyrS2-2C1F-BztA-Ser-NH2]
0.034	4.9	CC(=O)N1CCC[C@]12CC=CCCCC1(CCCC=CCCCOC(=O)N3CC[C@@](C(=O)N[C@@H](Cc4ccccc4Cl)C(=O)N[C@@H](Cc4csc5ccccc45)C(=O)N[C@@H](CO)C(N)=O)(C3)NC(=O)[C@H](CC(C)C)NC(=O)[C@H](Cc3ccccc3)NC(=O)[C@H](C)NC(=O)[C@H](CO)NC(=O)[C@H](Cc3cccc(C(=O)O)c3)NC(=O)[C@H](CC(=O)O)NC1=O)NC(=O)[C@H](CC(C)(C)C)NC(=O)[C@H](CC(=O)O)NC2=O (stereo partly drawn) [I-1901, Ac-PL3-Asp-Npg-B5-Asp-3COOHF-Ser-Ala-Phe-Leu-PyrS2-2C1F-BztA-Ser-NH2]
0.028	7.7	CC(=O)N1CCC[C@]12CC=CCCCC1(CCCC=CCCCOC(=O)N3CC[C@@](C(=O)N[C@@H](Cc4ccccc4Cl)C(=O)N[C@@H](Cc4csc5ccccc45)C(=O)N[C@@H](CO)C(N)=O)(C3)NC(=O)[C@H](CC(C)C)NC(=O)[C@H](Cc3ccccc3)NC(=O)[C@H](C)NC(=O)[C@H](CO)NC(=O)[C@H](Cc3cccc(C(=O)O)c3)NC(=O)[C@H](CC(=O)O)NC1=O)NC(=O)[C@H](CC(C)(C)C)NC(=O)[C@H](CC(=O)O)NC2=O (stereo partly drawn) [I-1902, Ac-PL3-Asp-Npg-B5-Asp-3COOHF-Ser-Ala-Phe-Leu-PyrS2-2C1F-BztA-Ser-NH2]
0.014	6.4	CC(=O)N1CCC[C@]12CC=CCCCC1(CCCC=CCCCOC(=O)N3CC[C@@](C(=O)N[C@@H](Cc4ccccc4Cl)C(=O)N[C@@H](Cc4csc5ccccc45)C(=O)N[C@@H](CO)C(N)=O)(C3)NC(=O)[C@H](CO)NC(=O)[C@H](Cc3ccccc3)NC(=O)[C@H](C)NC(=O)[C@H](C)NC(=O)[C@H](Cc3cccc(C(=O)O)c3)NC(=O)[C@H](CC(=O)O)NC1=O)NC(=O)[C@H](CC(C)(C)C)NC(=O)[C@H](CC(=O)O)NC2=O (stereo partly drawn) [I-1903, Ac-PL3-Asp-Npg-B5-Asp-3COOHF-Ala-Ala-Phe-Ser-PyrS2-2C1F-BztA-Ser-NH2]
0.02	9.7	CC(=O)N1CCC[C@]12CC=CCCCC1(CCCC=CCCCOC(=O)N3CC[C@@](C(=O)N[C@@H](Cc4ccccc4Cl)C(=O)N[C@@H](Cc4csc5ccccc45)C(=O)N[C@@H](CO)C(=O)N[C@H](CO)[C@@H](C)O)(C3)NC(=O)[C@H](CC(C)C)NC(=O)[C@H](Cc3ccccc3)NC(=O)[C@H](C)NC(=O)[C@H](C)NC(=O)[C@H](Cc3cccc(C(=O)O)c3)NC(=O)[C@H](CC(=O)O)NC1=O)NC(=O)[C@H](CC(C)(C)C)NC(=O)[C@H](CC(=O)O)NC2=O (stereo partly drawn) [I-1905, Ac-PL3-Asp-Npg-B5-Asp-3COOHF-Ala-Ala-Phe-Leu-PyrS2-2C1F-BztA-Ser-Thro1]
0.023	15.5	CC(=O)N1CCC[C@]12CC=CCCCC1(CCCC=CCCCOC(=O)N3CC[C@@](C(=O)N[C@@H](Cc4ccccc4Cl)C(=O)N[C@@H](Cc4csc5ccccc45)C(=O)N[C@@H](CO)C(=O)N4CCC[C@H]4CO)(C3)NC(=O)[C@H](CC(C)C)NC(=O)[C@H](Cc3ccccc3)NC(=O)[C@H](C)NC(=O)[C@H](C)NC(=O)[C@H](Cc3cccc(C(=O)O)c3)NC(=O)[C@H](CC(=O)O)NC1=O)NC(=O)[C@H](CC(C)(C)C)NC(=O)[C@H](CC(=O)O)NC2=O (stereo partly drawn) [I-1906, Ac-PL3-Asp-Npg-B5-Asp-3COOHF-Ala-Ala-Phe-Leu-PyrS2-2C1F-BztA-Ser-Prool]
0.029	> 20	CC(=O)N1CCC[C@]12CC=CCCCC1(CCCC=CCCCOC(=O)N3CC[C@@](C(=O)N[C@@H](Cc4ccsc4)C(=O)N[C@@H](Cc4csc5ccccc45)C(=O)N[C@@H](Cc4ccccc4)C(N)=O)(C3)NC(=O)[C@H](CC(C)C)NC(=O)[C@H](Cc3ccccc3)NC(=O)[C@H](C)NC(=O)[C@H](CCCCNC(C)C)NC(=O)[C@H](Cc3cccc(C(=O)O)c3)NC(=O)[C@H](CC(=O)O)NC1=O)NC(=O)[C@H](CC(C)(C)C)NC(=O)[C@H](CC(=O)O)NC2=O (stereo partly drawn) [I-1909, Ac-PL3-Asp-Npg-B5-Asp-3COOHF-iPrLys-Ala-Phe-Leu-PyrS2-3Thi-BztA-Phe-NH2]

From patent publication US20240116985A1, “STAPLED PEPTIDES AND METHODS THEREOF” (priority 2020, published 2024)
